Test results taken from PubChem BioAssay (NCI).
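Tested at 5 concentrations; 48 h exposure; 96-well plates; endpoints linearly interpolated, else capped at highest concentration. The concentration for 50% growth inhibition is given as GI50. TGI: total growth inhibition.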

What was measured:
Assay in all cases: inhibition of tumour cell growth, NCI panel, 48 h
SK-OV-3 ovarian = system: SK-OV-3 ovarian
SR leukemia = system: SR leukemia
HT29 colon = system: HT29 colon
PC-3 prostate = system: PC-3 prostate
CCRF-CEM leukemia = system: CCRF-CEM leukemia
SF-295 CNS = system: SF-295 CNS
HCC-2998 colon = system: HCC-2998 colon
MALME-3M melanoma = system: MALME-3M melanoma
LOX IMVI melanoma = system: LOX IMVI melanoma
SNB-75 CNS = system: SNB-75 CNS

SMILES | TGI (SK-OV-3 ovarian) [µM] | TGI (SR leukemia) [µM] | TGI (HT29 colon) [µM] | TGI (PC-3 prostate) [µM] | TGI (CCRF-CEM leukemia) [µM] | TGI (SF-295 CNS) [µM] | TGI (HCC-2998 colon) [µM] | TGI (MALME-3M melanoma) [µM] | TGI (LOX IMVI melanoma) [µM] | TGI (SNB-75 CNS) [µM] | GI50 (SK-OV-3 ovarian) [µM] | GI50 (SR leukemia) [µM] | GI50 (HT29 colon) [µM] | GI50 (PC-3 prostate) [µM] | GI50 (SNB-75 CNS) [µM] | GI50 (CCRF-CEM leukemia) [µM] | GI50 (SF-295 CNS) [µM] | GI50 (HCC-2998 colon) [µM]
O=c1oc2ccccc2c2nc3ccccc3cc12 | > 100 | > 100 | > 100 | > 100 | > 100 | > 100 | > 100 | > 100 |  |  |  |  |  |  |  |  |  | 
O=C1NN=C(c2c[nH]c3ccccc23)CC1NCc1ccccc1 (stereo not given) | > 100 |  | > 100 | > 100 | > 100 | > 100 |  | > 100 | > 100 | > 100 |  |  |  |  |  |  |  | 
Cc1ccsc1C(=S)Nc1ccc(Cl)c(C(=O)OC(C(C)C)C(C)C)c1 | > 100 |  | 71.6 | 61.8 | > 100 | > 100 | > 100 |  | 55.3 | 95.3 |  |  |  |  |  |  |  | 
Cc1cc(C)nc(NS(=O)(=O)c2ccc(Nc3c4ccccc4nc4c(C(=O)N5CCN(CCOS(C)(=O)=O)CC5)ccc(Cl)c34)cc2)n1 | > 100 | > 100 | > 100 |  | > 100 | > 100 | > 100 | > 100 |  | > 100 |  |  |  |  |  |  |  | 
CC12CCC(C/C1=N\NC(N)=O)C2(C)C (stereo not given) | > 100 | > 100 | > 100 | > 100 | > 100 | > 100 |  | > 100 | > 100 | > 100 |  |  |  |  |  |  |  | 
NC(=O)NC(=NCc1ccccc1)NCc1ccccc1 | > 100 |  | > 100 |  |  | > 100 | > 100 |  | > 100 |  |  |  |  |  |  |  |  | 
COC(=O)c1cc(C(=O)OC)cc(-c2ccc3c(c2)-c2nc4c(c(-c5ccc(OC)cc5)c2CC3)CCc2ccc(-c3cc(C(=O)OC)cc(C(=O)OC)c3)cc2-4)c1 | > 100 |  |  | > 100 |  | > 100 | > 100 | > 100 |  | > 100 |  |  |  |  |  |  |  | 
CCOP(=O)(OCC)c1cc(-c2ccccc2)ccc1N | > 100 |  | > 100 | > 100 | > 100 | > 100 | > 100 | > 100 |  | > 100 |  |  |  |  |  |  |  | 
COC(=O)C(=O)C(C(=O)C(=O)Nc1cc([N+](=O)[O-])ccc1C#N)c1nc2ccccc2[nH]c1=O (stereo not given) | > 100 | > 100 | > 100 |  | > 100 | > 100 | > 100 | > 100 | > 100 | > 100 |  |  |  |  |  |  |  | 
Brc1ccc2c(c1)-c1nc3c(cc1CC2)CCc1ccc(Br)cc1-3 | > 100 |  |  | > 100 | > 100 | > 100 | > 100 | > 100 | > 100 | > 100 |  |  |  |  |  |  |  | 
CCC1C(=O)OCc2c1cc1n(c2=O)CCC12OCCO2 (stereo not given) | > 100 | > 100 | > 100 |  | > 100 | > 100 | > 100 |  | > 100 | > 100 |  |  |  |  |  |  |  | 
CC1=C(C(=O)NNC(=O)CC#N)CC(C(=O)NNC(=O)CC#N)=C(C)N1 | > 100 |  | > 100 |  |  | > 100 | > 100 |  | > 100 | > 100 |  |  |  |  |  |  |  | 
CC(O)(C(=O)N(O)c1ccc(Cl)cc1)c1ccc(Cl)cc1 (stereo not given) | 97.5 | 36.1 | > 100 | 73 | 34.4 | 92.4 | 38.7 | > 100 | > 100 |  |  |  |  |  |  |  |  | 
COc1cc(OC)c(C2c3cc4c(cc3OC(N3CCOCC3)C2C)OCO4)c(OC)c1 (stereo not given) |  | > 100 | > 100 | > 100 | > 100 | > 100 | > 100 |  | > 100 | 93.2 |  |  |  |  |  |  |  | 
CCCC[C@@H]1CCN2C[C@@H](O)[C@@H](O)[C@H]2[C@@H]1O | > 100 |  | > 100 | > 100 | > 100 | > 100 | > 100 | > 100 | > 100 | > 100 |  |  |  |  |  |  |  | 
O=C(O)c1cc2ccccc2c(S(=O)(=O)O)c1O | > 100 |  | > 100 | > 100 | > 100 | > 100 | > 100 | > 100 | > 100 | > 100 |  |  |  |  |  |  |  | 
CCOC(=O)C(NC(=O)c1ccc(N=NN(C)C)cc1)C(C)C (stereo not given) | > 100 | > 100 | > 100 |  | > 100 | > 100 | > 100 | > 100 | > 100 | > 100 |  |  |  |  |  |  |  | 
NNC(=O)c1cccc2c1Oc1ccccc1S2 | > 100 | > 100 | > 100 | > 100 | > 100 | > 100 | > 100 |  | > 100 | > 100 |  |  |  |  |  |  |  | 
COc1ccc(CCCCl)c(C2=NCCc3ccccc32)c1 | > 100 | > 100 | > 100 | > 100 | > 100 | > 100 | > 100 |  |  | > 100 |  |  |  |  |  |  |  | 
Cc1ccc(C(=O)c2[nH]c(Nc3cc(C)ccn3)c(C(=S)Nc3ccccc3)c2N)cc1 | > 100 | > 100 | > 100 |  | > 100 | > 100 | > 100 | > 100 | > 100 | > 100 |  |  |  |  |  |  |  | 
Nc1n[nH]c2ccccc12 | > 100 | > 100 | > 100 | > 100 | > 100 | > 100 |  | > 100 | > 100 | > 100 |  |  |  |  |  |  |  | 
Nc1nc(Nc2ccc(OCc3cccc(F)c3)cc2)c2c(n1)[nH]c1ccc(O)cc12 | 31.3 | 5.87 | 4.49 | 14.7 | 9.62 | 7.63 | 13.6 |  |  | 3.01 | 17.1 | 2.13 | 2.13 | 3.71 | 1.53 | 3.03 | 2.5 | 3.46
COc1cc2c3c(n(C)c(=O)c2cc1OC)-c1cc2c(cc1/C3=C/CCCCBr)OCO2 | > 100 | 15.6 | > 100 | > 100 | 7.44 | > 100 |  | > 100 | > 100 | 96.1 |  |  |  |  |  |  |  | 
